# Counter-ions that a name gives are not always drawn. Like-named read-outs stand apart in the source and are kept apart here.
# Key:
# [1] = Solubility of candesartan cilexetil dispersions in 0.1N HCl; assay type: physicochemical; conditions: simulated gastric fluid
# [2] = Solubility of eprosartan mesylate solid dispersions in 0.1N HCl; assay type: physicochemical; conditions: simulated gastric fluid, thermodynamic from solid
# [3] = 0.1N HCL with 0.5% SLS, USP Type II, 50 RPM
# [4] = background statement in detailed description; cited from earlier work
compound,measurement,setting,value
"CCOc1nc2cccc(C(=O)OC(C)OC(=O)OC3CCCCC3)c2n1Cc1ccc(-c2ccccc2-c2nnn[nH]2)cc1 (centres unmarked) [Candesartan cilexetil, candesartan cilexetil]",solubility,[1],0.51 µg/mL
"CCCCc1ncc(/C=C(\Cc2cccs2)C(=O)O)n1Cc1ccc(C(=O)O)cc1 [Eprosartan mesylate, eprosartan mesylate]",solubility,[2],712 µg/mL
"CCCCC(=O)N(Cc1ccc(-c2ccccc2-c2nnn[nH]2)cc1)[C@H](C(=O)O)C(C)C [Valsartan, valsartan]",% Cum. Dissolved,[3]; 0 minutes,0%
same,% Cum. Dissolved,[3]; 5 minutes,1.0%
same,% Cum. Dissolved,[3]; 10 minutes,4.1%
same,% Cum. Dissolved,[3]; 15 minutes,6.7%
same,% Cum. Dissolved,[3]; 30 minutes,6.5%
same,% Cum. Dissolved,[3]; 60 minutes,9.7%
same,% Cum. Dissolved,[3]; 120 minutes,15.7%
same,% Cum. Dissolved,"[3]; 120 minutes, listed as pure valsartan",15%
same,bioavailability,[4],10-25%
